{"source": "patent US7632946B2", "about": "“Naphthyridine-based antibacterial compositions” (Abbott Laboratories, priority 2004, dated 2009)", "system": "bacterial protein synthesis (S30 extract from quinolone-succeptable Streptococcus pneumoniae ATCC 46919)", "assay": "Cell-free translation assay, firefly luciferase reporter, S30 Streptococcus pneumoniae extract", "type": "biochemical", "conditions": "luciferase mRNA, read-out: IC50, concentration causing 50% inhibition of bacterial protein synthesis", "protocol": "Bacterial protein synthesis inhibitory activity of representative compounds of this invention having formula (I) and the commercially-available antibacterials in TABLE 2 was determined by translation assays using the firefly luciferase reporter system described by Murray et al., (2001), “Staphylococcus aureus Cell Extract Transcription-Translation Assay: Firefly Luciferase Reporter System for Evaluating Protein Translation Inhibitors,” Antimicrob. Agents Chemother. 45(6): 1900-1904, but replacing the Staphylococcus aureus S30 extract described therein with S30 Streptococcus pneumoniae extract from quinolone-succeptable Streptococcus pneumoniae ATCC 46919, and replacing plasmid coding for the luciferase gene with mRNA (encoding produced by in vitro transcription from the plasmid pAS10rbs3) which encoded the luciferase gene with an upstream Streptococcus pneumoniae promoter and Shine-Dalgarno site."}
{"smiles": "CC(=O)NC[C@H]1CN(c2ccc(N3CCOCC3)c(F)c2)C(=O)O1", "note": "[Linezolid]", "values": [{"measurement": "IC50", "result": "~3000", "unit": "nM"}]}
